pIC50: −log10 of the molar value.
These compounds were tested against recombinant human HDAC-1 enzyme (rHDAC-1) (Homo sapiens (Human), UniProt Q13547) (assay: Inhibition of recombinant human HDAC-1 ([3H]-acetylated histone substrate)). Conditions: not given.
Format: biochemical

Chain of recombinant human HDAC-1 enzyme (rHDAC-1) (Q13547 whole entry): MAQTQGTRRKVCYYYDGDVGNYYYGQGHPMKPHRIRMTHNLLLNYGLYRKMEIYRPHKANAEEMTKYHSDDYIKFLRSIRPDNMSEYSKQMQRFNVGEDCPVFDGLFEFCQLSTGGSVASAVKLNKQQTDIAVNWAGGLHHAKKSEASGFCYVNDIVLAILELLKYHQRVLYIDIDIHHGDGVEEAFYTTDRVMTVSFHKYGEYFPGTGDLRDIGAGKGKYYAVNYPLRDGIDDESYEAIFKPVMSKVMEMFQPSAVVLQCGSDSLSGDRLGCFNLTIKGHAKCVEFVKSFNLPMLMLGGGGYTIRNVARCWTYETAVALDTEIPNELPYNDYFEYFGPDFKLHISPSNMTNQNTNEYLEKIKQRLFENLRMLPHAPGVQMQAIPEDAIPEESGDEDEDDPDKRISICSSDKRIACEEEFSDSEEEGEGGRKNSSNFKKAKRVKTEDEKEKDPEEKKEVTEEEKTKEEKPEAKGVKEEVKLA

Row | Structure (SMILES) | pIC50
1 | O=C(NO)c1ccc(CCSc2ccccc2)cc1 [Compound 70, N-Hydroxy-4-(2-thiophenyl)-ethyl benzamide] | 6.05

Same assay, conditions: Table 4, recombinant human HDAC-1

Row | Structure (SMILES) | pIC50
2 | CC(C)C(Cc1ccc(NS(=O)(=O)c2ccccc2)cc1)C(=O)NO (centres unmarked) [Compound 81] | < 4.60
3 | CN(C)c1cccc2c(S(=O)(=O)Nc3ccc(/C=C/C(=O)NO)cc3)cccc12 [Compound 97] | 6.55
4 | Cc1ccc(S(=O)(=O)Nc2ccc(/C=C/C(=O)NO)cc2)cc1 [Compound 108] | 6.52
5 | O=C(/C=C/c1ccc(NS(=O)(=O)c2cc(Cl)cc(Cl)c2O)cc1)NO [Compound 111] | 7.02
6 | O=C(/C=C/c1ccc(NS(=O)(=O)c2ccc3oc4ccccc4c3c2)cc1)NO [Compound 101] | 7.40
7 | COc1ccc(S(=O)(=O)Nc2ccc(/C=C/C(=O)NO)cc2)cc1 [Compound 113] | 6.70
8 | COc1ccc(S(=O)(=O)Nc2ccc(/C=C/C(=O)Nc3ccccc3N)cc2)cc1OC [Compound 116] | 5.40
9 | Nc1ccccc1NC(=O)/C=C/c1ccc(NS(=O)(=O)c2ccc(-c3ccccc3)cc2)cc1 [Compound 123] | 6.00
10 | O=C(/C=C/c1ccc(S(=O)(=O)Nc2ccc(-c3ccccc3)cc2)cc1)NO [Compound 162] | 7.40
11 | O=C(CCc1ccc(NS(=O)(=O)c2ccccc2)cc1)NO [Compound 38, N-Hydroxy-3-[4-(benzenesulfonylamino)-phenyl]-2-propanamide] | 7.00
12 | O=C(/C=C/c1ccc(NS(=O)(=O)c2ccc(Cl)cc2Cl)cc1)NO [Compound 106] | 6.52
13 | Nc1ccccc1NC(=O)c1ccc(CC(=O)c2ccccc2)o1 [Compound 178] | < 4.70
14 | COc1ccc(NS(=O)(=O)c2ccc(/C=C/C(=O)NO)cc2)cc1OC [Compound 98] | 7.22
15 | O=C(CCc1ccc(CCCc2ccccc2)cc1)NO [Compound 77, N-Hydroxy-3-[4-(3-phenylpropyl)-phenyl]-propanamide] | 6.19
16 | O=C(/C=C/c1ccc(NS(=O)(=O)Cc2ccccc2)cc1)NO [Compound 100] | 6.12
17 | O=C(/C=C/c1ccc(NS(=O)(=O)c2cccs2)cc1)NO [Compound 87] | 6.22
18 | O=C(/C=C/c1ccc(NS(=O)(=O)c2ccc(-c3cccs3)s2)cc1)NO [Compound 103] | 7.30
19 | Nc1ccccc1NC(=O)C#Cc1ccc(NS(=O)(=O)c2ccc(-c3ccccc3)cc2)cc1 [Compound 129] | 5.52

The compounds below were run on histone deacetylase in nuclear extracts from H446 cells (pooled HDACs) (assay: Inhibition of histone deacetylase in H446 nuclear extracts ([3H]-acetylated histone substrate)). Conditions: not given.
Format: biochemical, human

Row | Structure (SMILES) | pIC50 | pooled HDACs percent inhibition
20 | O=C(NO)c1ccc(CCSc2ccccc2)cc1 [Compound 70, N-Hydroxy-4-(2-thiophenyl)-ethyl benzamide] | 5.26 | 
21 | O=C(NO)c1ccc(CCS(=O)(=O)c2ccccc2)cc1 [Compound 73, N-Hydroxy-4-(2-benzenesulfonyl)-ethyl benzamide] |  | 35% @ 20 μM

Same assay, conditions: H446 nuclear extract

Row | Structure (SMILES) | pIC50
22 | CC(C)C(Cc1ccc(NS(=O)(=O)c2ccccc2)cc1)C(=O)NO (centres unmarked) [Compound 81] | < 4.30
23 | O=C(/C=C/c1ccc(NS(=O)(=O)c2cccc3ccccc23)cc1)NO [Compound 93] | 6.46
24 | O=C(/C=C/C#Cc1ccc(NS(=O)(=O)c2ccccc2)cc1)NO [Compound 32, N-Hydroxy-5-[4-(benzenesulfonylamino)-phenyl]-4-yn-2-pentanamide] | > 4.70
25 | CN(C)c1cccc2c(S(=O)(=O)Nc3ccc(/C=C/C(=O)NO)cc3)cccc12 [Compound 97] | 6.10
26 | O=C(Cc1ccc(NS(=O)(=O)c2cc(Cl)ccc2Cl)cc1)NO [Compound 8, 2-[4-(2,5-dichlorobenzenesulfonylamino)-phenyl]-N-hydroxy-acetamide] | 4.82
27 | O=C(/C=C/c1ccc(NC(=O)Nc2cccc3ccccc23)cc1)NO [Compound 146] | 5.54
28 | O=C(CCc1ccc(CCc2ccccc2)cc1)NO [Compound 157] | 5.22
29 | CN(C)c1ccc(CCc2ccc(C(=O)NO)cc2)cc1 [Compound 172] | 5.00
30 | O=C(Cc1ccc(NS(=O)(=O)c2cccc3cccnc23)cc1)NO [Compound 18, 2-[4-(8-quinolinesulfonylamino)-phenyl]-N-hydroxy-acetamide] | 3.80
31 | O=C(/C=C/c1ccc(NS(=O)(=O)c2cc(Cl)cc(Cl)c2O)cc1)NO [Compound 111] | 6.40
32 | O=C(NO)c1ccc(CCCS(=O)(=O)c2ccccc2)cc1 [Compound 148] | 5.30
33 | O=C(/C=C/c1ccc(NS(=O)(=O)c2ccc3oc4ccccc4c3c2)cc1)NO [Compound 101] | 6.52
34 | O=C(/C=C/c1ccc(CC(O)c2ccccc2)o1)NO (centres unmarked) [Compound 136] | 5.05
35 | COc1ccc(NC(=O)Nc2ccc(/C=C/C(=O)NO)cc2)cc1OC [Compound 147] | 5.72
36 | O=C(Cc1ccc(NS(=O)(=O)c2ccc(Br)cc2)cc1)NO [Compound 19, 2-[4-(4-bromobenzenesulfonylamino)-phenyl]-N-hydroxy-acetamide] | 4.70
37 | O=C(Cc1ccc(NS(=O)(=O)c2cccc(C(F)(F)F)c2)cc1)NO [Compound 10, 2-[4-(3-trifluoromethylbenzenesulfonylamino)-phenyl]-N-hydroxy acetamide] | 4.52
38 | O=C(Cc1ccc(NS(=O)(=O)c2ccc(Cl)c(Cl)c2)cc1)NO [Compound 15, 2-[4-(3,4-dichlorobenzenesulfonylamino)-phenyl]-N-hydroxy-acetamide] | 4.60
39 | CN(C)c1ccc(CCc2ccc(C(=O)NO)s2)cc1 [Compound 171] | 4.70
40 | Cc1ccc(S(=O)(=O)Nc2ccc(CC(=O)NO)cc2)cc1 [Compound 9, 2-[4-(4-methylbenzenesulfonylamino)-phenyl]-N-hydroxy-acetamide] | 5.05
41 | O=C(NO)c1ccc(CCCCc2ccccc2)cc1 [Compound 61, N-Hydroxy-4-(4-phenylbutyl)-benzamide] | 5.40
42 | O=C(/C=C/c1ccc(NS(=O)(=O)c2cccc3cccnc23)cc1)NO [Compound 99] | 6.05

Row | Structure (SMILES) | pIC50
43 | O=C(CC(O)c1ccc(C(=O)NO)cc1)c1ccccc1 (centres unmarked) [Compound 53, N-Hydroxy-4-(3-oxo-3-phenyl-1-hydroxypropyl)-benzamide] | 4.60
44 | O=C(CCCCc1cccc(NS(=O)(=O)c2ccccc2)c1)NO [Compound 26] | > 4.70
45 | O=C(/C=C/c1ccc(C(=O)NO)cc1)c1ccccc1 [Compound 45, N-Hydroxy-4-(3-oxo-3-phenylpropenyl)-benzamide] | 5.40
46 | O=C(NO)c1ccc(CCCc2ccccc2)cc1 [Compound 56, N-Hydroxy-4-(3-phenylpropyl)-benzamide] | 4.82
47 | O=C(CCc1ccc(NS(=O)(=O)c2ccccc2)cc1)NO [Compound 38, N-Hydroxy-3-[4-(benzenesulfonylamino)-phenyl]-2-propanamide] | 6.12
48 | O=C(NO)c1ccc(CCCCCc2ccccc2)cc1 [Compound 153] | 5.30
49 | O=C(/C=C/c1ccc(NS(=O)(=O)c2ccc(Cl)cc2Cl)cc1)NO [Compound 106] | 6.10
50 | O=C(CCCc1ccc(CCCCc2ccccc2)cc1)NO [Compound 156] | 5.30
51 | O=C(Cc1ccc(CCCS(=O)(=O)c2ccccc2)cc1)NO [Compound 158] | < 4.70
52 | O=C(/C=C/c1ccc(NS(=O)(=O)Cc2ccccc2)cc1)NO [Compound 100] | 6.10
53 | O=C(NO)c1ccc(/C=C/c2ccccc2)cc1 [Compound 151] | 5.12
54 | O=C(Cc1ccc(CCCc2ccccc2)cc1)NO [Compound 175] | < 5.70
55 | O=C(/C=C/c1ccc(NS(=O)(=O)c2cccs2)cc1)NO [Compound 87] | 5.52
56 | O=C(/C=C/c1ccc(NS(=O)(=O)c2ccc(-c3cccs3)s2)cc1)NO [Compound 103] | 6.15
57 | O=C(Cc1ccc(NS(=O)(=O)c2ccccc2[N+](=O)[O-])cc1)NO [Compound 7, 2-[4-(2-nitrobenzenesulfonylamino)-phenyl]-N-hydroxy-acetamide] | 4.15
58 | O=C(Cc1ccc(NS(=O)(=O)c2cc3ccccc3s2)cc1)NO [Compound 4] | 5.15
59 | O=C(/C=C/c1ccc(NC(=O)Nc2ccc(Cl)cc2)cc1)NO [Compound 145] | 5.42
60 | O=C(CCc1ccc(C(=O)NO)cc1)c1ccccc1 [Compound 50, N-Hydroxy-4-(3-oxo-3-phenylpropyl)-benzamide] | 5.30
61 | O=C(NO)c1ccc(NS(=O)(=O)c2cc3ccccc3s2)cc1 [Compound 13] | 6.05
62 | O=C(NO)c1ccc(CCc2ccccc2)cc1 [Compound 150] | 5.00
63 | O=C(Cc1ccc(CCCCc2ccccc2)cc1)NO [Compound 174, N-hydroxy-2-(4-(4-phenylbutyl)phenyl)acetamide] | < 4.70

Same assay, conditions: H446 nuclear extract; @ 1 μM

Row | Structure (SMILES) | pooled HDACs percent inhibition
64 | Cc1ccc(S(=O)(=O)Nc2ccc(/C=C/C(=O)NO)cc2)cc1 [Compound 108] | 10% @ 1 μM
65 | COc1ccc(S(=O)(=O)Nc2ccc(/C=C/C(=O)NO)cc2)cc1 [Compound 113] | 46% @ 1 μM

Same assay, conditions: H446 nuclear extract; @ 5 μM

Row | Structure (SMILES) | pooled HDACs percent inhibition
66 | O=C(/C=C/c1ccc(NS(=O)(=O)c2cccnc2)cc1)NO [Compound 104] | 21% @ 5 μM
67 | O=C(/C=C/c1ccc(NS(=O)(=O)c2ccccn2)cc1)NO [Compound 96] | 33% @ 5 μM

Same assay, conditions: H446 nuclear extract; @ 20 μM

Row | Structure (SMILES) | pooled HDACs percent inhibition
68 | O=C(NO)c1ccc(CC[S+]([O-])c2ccccc2)cc1 (centres unmarked) [Compound 71, N-Hydroxy-4-(2-benzenesulfoxide)-ethyl benzamide] | 44% @ 20 μM
69 | Nc1ccccc1NC(=O)CCc1ccc(CC(=O)c2ccccc2)o1 [Compound 144] | 6% @ 20 μM
70 | Nc1ccccc1NC(=O)/C=C/c1ccc(CC(=O)c2ccccc2)o1 [Compound 139] | 44% @ 20 μM
71 | Nc1ccccc1NC(=O)/C=C/C#Cc1cccc(NS(=O)(=O)c2ccccc2)c1 [Compound 168] | 0% @ 20 μM
72 | O=C(CCC1CCC(CC(=O)c2ccccc2)O1)NO (centres unmarked) [Compound 176] | 20% @ 20 μM
73 | CN(C)c1ccc(CCc2ccccc2C(=O)NO)cc1 [Compound 173] | 35% @ 20 μM
74 | O=C(CCc1ccc(CC(=O)c2ccccc2)o1)NO [Compound 143] | 55% @ 20 μM
75 | O=C(NO)c1cccc(CCc2ccccc2)c1 [Compound 68, N-Hydroxy-3-(2-phenylethyl)-benzamide] | 3% @ 20 μM
76 | Nc1ccccc1NC(=O)c1ccc(CC(=O)c2ccccc2)o1 [Compound 178] | 2% @ 20 μM
77 | O=C(CCCc1ccc(CCCc2ccccc2)cc1)NO [Compound 155] | 39% @ 20 μM
78 | O=C(CCCc1ccc(C(=O)NO)cc1)c1ccccc1 [Compound 177] | 10% @ 20 μM
79 | O=C(NO)c1ccc(CCCC(O)c2ccc3ccccc3c2)cc1 (centres unmarked) [Compound 149] | 8% @ 20 μM

Same assay, conditions: H446 nuclear extract; @ 100 μM

Row | Structure (SMILES) | pooled HDACs percent inhibition
80 | O=C(NO)c1cccc(CCCc2ccccc2)c1 [Compound 64, N-Hydroxy-3-(3-phenylpropyl)-benzamide] | 12% @ 100 μM
81 | O=C(Cc1cccc(NS(=O)(=O)c2cc3ccccc3s2)c1)NO [Compound 14] | 36% @ 100 μM
82 | O=C(Cc1ccc(NS(=O)(=O)c2cccc([N+](=O)[O-])c2)cc1)NO [Compound 17, 2-[4-(3-nitrobenzenesulfonylamino)-phenyl]-N-hydroxy-acetamide] | 47% 100 μM
83 | O=C(Cc1ccc(NS(=O)(=O)c2cccs2)cc1)NO [Compound 16, 2-[4-(2-Thiophenesulfonylamino)-phenyl]-N-hydroxy-acetamide] | 38% 100 μM

From patent publication US8796330B2, “Inhibitors of histone deacetylase and prodrugs thereof” (Methylgene Inc., priority 2006, dated 2014)
